According to US7078428B2, “Isoindolone derivatives, preparation process and intermediates of this process, their use as medicaments, and pharmaceutical compositions comprising them” (Sanofi-Aventis Deutschland GmbH, priority 2002, dated 2006):

How the values were obtained:
NHE1 = target: T1, NHE1 (Homo sapiens, UniProt P19634); experiment: NHE inhibition FLIPR test (intracellular pH recovery, BCECF) in transfected LAP-1 cells; assay type: cell-based; conditions: transfected cell line (parental LAP-1) expressing the NHE-1 subtype, pHi recovery after acidification
T1 construct: expressed in transfected cells
T1 sequence (P19634 whole entry, species assumed): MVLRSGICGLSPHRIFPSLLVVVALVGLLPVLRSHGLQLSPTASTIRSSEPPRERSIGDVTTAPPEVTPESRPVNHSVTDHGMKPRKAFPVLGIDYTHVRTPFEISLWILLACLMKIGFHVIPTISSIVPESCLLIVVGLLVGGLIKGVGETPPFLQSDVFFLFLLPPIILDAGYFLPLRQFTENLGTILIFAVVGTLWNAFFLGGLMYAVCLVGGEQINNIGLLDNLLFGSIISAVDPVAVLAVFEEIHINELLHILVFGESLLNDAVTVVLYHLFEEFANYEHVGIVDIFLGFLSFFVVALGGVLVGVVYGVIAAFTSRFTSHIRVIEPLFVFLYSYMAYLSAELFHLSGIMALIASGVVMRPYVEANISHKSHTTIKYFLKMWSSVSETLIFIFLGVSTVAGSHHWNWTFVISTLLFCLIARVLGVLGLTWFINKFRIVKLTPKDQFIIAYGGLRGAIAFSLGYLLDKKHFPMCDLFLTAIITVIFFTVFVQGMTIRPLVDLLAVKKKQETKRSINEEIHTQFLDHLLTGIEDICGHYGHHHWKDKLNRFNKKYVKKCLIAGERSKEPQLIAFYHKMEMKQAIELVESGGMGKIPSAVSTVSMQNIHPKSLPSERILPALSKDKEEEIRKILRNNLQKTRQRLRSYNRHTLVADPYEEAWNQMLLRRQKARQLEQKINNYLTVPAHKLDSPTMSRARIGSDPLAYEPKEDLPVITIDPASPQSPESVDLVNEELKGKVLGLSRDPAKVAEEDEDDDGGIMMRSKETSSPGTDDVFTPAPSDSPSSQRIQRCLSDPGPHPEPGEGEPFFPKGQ
Protocol: The NHE inhibitory activities (IC50 values) of the compounds according to the invention were determined by a FLIPR test.
The test is performed in the FLIPR (Fluorescent Imaging Plate Reader) equipped with clear-bottomed and black-walled 96-well microtitration plates.
The growth medium for the transfected cells (Iscove +10% foetal calf serum) also comprises G418 as selection antibiotic to ensure the presence of transfected sequences.
The actual test begins by eliminating the growth medium and adding 100 μl of loading buffer per well (5 μM of BCECF-AM [2′,7′-bis(2-carboxyethyl)-5-(6)-carboxyfluoresceine acetoxymethyl ester] in 20 mM of NH4Cl, 115 mM of choline chloride, 1 mM of CaCl2, 5 mM of KCl, 20 mM of HEPES and 5 mM of glucose; pH 7.4 (adjusted with KOH). The cells are then incubated for 20 minutes at 37° C. This incubation results in the loading of the fluorescent dye into the cells, the fluorescence intensity of which depends on the pHi, and on the NH4Cl, which results in a slight basification of the cells.
The precursor BCECF-AM, a non-fluorescent dye, is, as an ester, capable of crossing the membrane. The actual dye, which is incapable of crossing the membrane, is released inside the cell by esterases.
After this 20-minute incubation, the loading buffer, which comprises NH4Cl and free BCECF-AM, is removed by washing three times in the cell washing device (Tecan Columbus), each wash being performed with 400 μl of washing buffer (133.8 mM of choline chloride, 4.7 mM of KCl, 1.25 mM of MgCl2, 1.25 mM of CaCl2, 0.97 mM of K2HPO4, 0.23 mM of KH2PO4, 5 mM of HEPES and 5 mM of glucose; pH 7.4 (adjusted with KOH)). The residual volume remaining in the wells is 90 μl (possibly between 50 and 125 μl). This washing step removes the free BCECF-AM and results in an intracellular acidification (pHi of 6.3-6.4) due to the removal of the external ammonium ions.
As the equilibrium of the intracellular ammonium with the aqueous ammonia and the protons, by removal of the extracellular ammonium and by the subsequent immediate crossing of the aqueous ammonia across the cell membrane, is disrupted, the washing process results in intracellular protons remaining, which is the cause of the intracellular acidification. This acidification can result finally in the death of the cells if it lasts long enough. It is important here for the washing buffer to be free of sodium (<1 mM), otherwise the extracellular sodium ions would result in an immediate increase in the pHi on account of the activity of the cloned NHE isoforms. It is also important for all the buffers used (loading buffer, washing buffer and regeneration buffer) not to contain any HCO3-ions, otherwise the presence of bicarbonate would result in the activation of bicarbonate-dependent systems that disrupt the pHi regulation, which systems are contained in the LAP-1 parental cell line.
The microtiter plates containing acidified cells are then transferred (up to 20 minutes after the acidification) to the FLIPR. In the FLIPR, the intracellular fluorescent dye is activated with light of a wavelength of 488 nm, which is generated by an argon laser, and the measuring parameters (laser power, illumination time and diaphragm of the […] camera integrated into the FLIPR) are chosen such that the average value of the fluorescent signal per well is between 30,000 and 35,000 relative fluorescence units.
The actual measurement in the FLIPR starts with a photograph being taken by the CCD camera every two seconds under software control. After 10 seconds, the increase in the intracellular pH is initiated by adding 90 μl of regeneration buffer (133.8 mM of NaCl, 4.7 mM of KCl, 1.25 mM of MgCl2, 1.25 mM of CaCl2, 0.97 mM of K2HPO4, 0.23 mM of KH2PO4, 10 mM of HEPES and 5 mM of glucose; pH 7.4 (adjusted with NaOH)) using a 96-well pipette device incorporated into the FLIPR. Some wells, to which is added pure regeneration buffer, serve as positive controls (100% NHE activity). […]

IC50 (NHE1) [nM] | melting point [°C] | SMILES
63 | 229 | NC(N)=NC(=O)CC1c2ccccc2C(=O)N1CC1CC1 (stereo not shown) [Example 8, N-[2-(2-Cyclopropylmethyl-3-oxo-2,3-dihydro-1H-isoindol-1-yl)acetyl]guanidine]
15 | 214 to 215 | CC(C)CN1C(=O)c2ccc(C(C)(C)C)cc2C1CC(=O)N=C(N)N (stereo not shown) [Example 10, N-[2-(6-tert-Butyl-2-isobutyl-3-oxo-2,3-dihydro-1H-isoindol-1-yl)acetyl]guanidine]
11 | 262 to 263 | CC(C)CN1C(=O)c2cc(C(C)(C)C)ccc2C1CC(=O)N=C(N)N (stereo not shown) [Example 11, N-[2-(5-tert-Butyl-2-isobutyl-3-oxo-2,3-dihydro-1H-isoindol-1-yl)acetyl]guanidine]
102 | 224 | CC(C)CN1C(=O)c2cc(C(F)(F)F)ccc2C1CC(=O)N=C(N)N (stereo not shown) [Example 14, N-[2-(2-Isobutyl-3-oxo-5-trifluoromethyl-2,3-dihydro-1H-isoindol-1-yl)-acetyl]-guanidine]
16 | 154 | CC(C)CN1C(=O)c2ccc(C(F)(F)F)cc2C1CC(=O)N=C(N)N (stereo not shown) [Example 15, N-[2-(2-Isobutyl-3-oxo-6-trifluoromethyl-2,3-dihydro-1H-isoindol-1-yl)-acetyl]guanidine]
26 | 154 | CC(C)CN1C(=O)c2cc(Cl)c(Cl)cc2C1CC(=O)N=C(N)N (stereo not shown) [Example 18, N-[2-(5,6-Dichloro-2-isobutyl-3-oxo-2,3-dihydro-1H-isoindol-1-yl)acetyl]guanidine]
11 | 212 | CC(C)CN1C(=O)c2c(F)ccc(F)c2C1CC(=O)N=C(N)N (stereo not shown) [Example 19, N-[2-(4,7-Difluoro-2-isobutyl-3-oxo-2,3-dihydro-1H-isoindol-1-yl)acetyl]guanidine]
25 | 266 | Cc1ccc2c(c1)C(=O)N(CC(C)C)C2CC(=O)N=C(N)N (stereo not shown) [Example 34, N-[2-(2-Isobutyl-5-methyl-3-oxo-2,3-dihydro-1H-isoindol-1-yl)acetyl]guanidine]
